According to patent US9732050B2, “Modulators of sperm hypermotility and uses thereof” (HYDRA BIOSCIENCES, INC., priority 2005, dated 2017):

Target: T1, Mouse CatSper1 currents (Mus musculus, UniProt Q91ZR5)
T1 construct: Spermatozoa from corpus epididymis were used because the CD of such cells was less fragile; from tissue; host or cells: mouse spermatozoa from corpus epididymis
Assay: Inhibition of mouse CatSper1 currents in electrophysiological recordings
Format: cell-based
Protocol: Compound (II) was tested for its effects on sperm hyperactivation using a single-sperm motility assay as described in Kirichok Y, Navarro B, Clapham D E. “Whole-cell patch-clamp measurements of spermatozoa reveal an alkaline-activated Ca2+ channel”. Nature. 2006; 439(7077):737-40. Mouse sperm was prepared as described in Kirichok.
The patch pipette was applied to the sperm cell cytoplasmic droplet (CD). Spermatozoa from corpus epididymis were used because the CD of such cells was less fragile. The most mature spermatozoa, those with the CD located next to the principal piece, were chosen for experiments. Pipette resistance with Cs-Methanesulfonate-based solutions was 6-13 MΩ. Access resistance in the whole-cell configuration was 25-120 MS). The pipette solution (in mM) was as follows: 140 Cs-Methanesulfonate, 5 NaCl, 10 HEPES, 10 EGTA, pH 7.2 (pH adjusted with CsOH).
Seals between the patch pipette and the cytoplasmic droplet were formed in HS bath solution (Kirichok Y, Navarro B, Clapham D E. Whole-cell patch-clamp measurements of spermatozoa reveal an alkaline-activated Ca2+ channel. Nature. 2006 Feb. 9; 439(7077):737-40). After break-in, the bath solution was changed to recording solution: 150 NaGluconate, 10 HEPES, 2Na3HEDTA and 2 EGTA, pH 7.4 (pH adjusted with NaOH). CaCl2 was added to the solution in accordance with the WinMAXC v2.05 program (C. Patton, Stanford University) to yield ˜[…] free [Ca2+].
A 20 micromolar solution of compound (II), i.e. 3,4-bis(2-thienylcarbonyl)-1,2,5-oxadiazole-2-ium-2-olate, was prepared from a 100 mM DMSO stock in the recording solution described above. Osmolarity of the solutions was approximately 303 mmol kg-1.
The membrane potential was held at 0 mV. Every 5 seconds CatSper currents were monitored by application of a voltage ramp from −100 mV to +100 mV over the course of 400 milliseconds. Following break-in, cells were monitored until a steady state level of CatSper current (plotted at +80 mV) was observed. […] Steady state block was monitored for 5-6 sweeps. […] Series resistance was monitored throughout the recordings.

- block of CatSper current (20 micromolar, current plotted at +80 mV, mouse spermatozoa from corpus epididymis): steady state block was achieved
- sweeps until steady state block (20 micromolar, voltage ramp every 5 seconds): 2-3 sweeps
- CatSper current following removal of the compound (washout after 20 micromolar): returned rapidly to unblocked levels
SMILES: O=C(c1cccs1)c1no[n+]([O-])c1C(=O)c1cccs1 [Compound (II), 3,4-bis(2-thienylcarbonyl)-1,2,5-oxadiazole-2-ium-2-olate]
